Literature values in patent publication US12296127B2, “Intravesical drug delivery devices” (Massachusetts Institute of Technology, priority 2007, dated 2025).

Legend:
[1] = delivered orally or transdermally
[2] = oral delivery (ELMIRON); high first pass effect

Row | Compound | patients taking the drug who experience side effects [1] | patients who stop treatment due to the severity of the side effects [1] [%] | bioavailability [2] [%]
1 | CCN(CC)CC#CCOC(=O)C(O)(c1ccccc1)C1CCCCC1 (stereo not drawn) [oxybutynin] | approximately 61% | 7 to 11 | 
2 | Pentosan polysulfate sodium [PPS] |  |  | 3
